Laboratory results taken from BindingDB's records for doi:10.1021/jm00065a013 (Washington University, 1993).
*1 amine or outer side, *2 acyl side, *3 side chain or, on linkers, in order; H or OH if unused. Where a SMILES comes first, the peptide text is derived from it. Bridges are numbered along the chain shown (N, C = ends). Roman numbers before positions name the chains, in order. [ ]: non-standard residue; d: D form. Pro(4R-SH) = O=C([C@@H]1C[C@@H](S[*:3])CN1[*:1])[*:2]; Pro(4S-SH) = O=C([C@@H]1C[C@H](S[*:3])CN1[*:1])[*:2]; hCys = N[C@@H](CCS)C(=O)O; Sar = CNCC(=O)O

target: Type-2 angiotensin II receptor (Oryctolagus cuniculus); test: In vitro binding affinity at angiotensin II (type 2) receptor in rabbit uterus.

Row | IC50 | SMILES
1 | 80 nM | CNCC(=O)N[C@@H](CCCNC(=N)N)C(=O)N[C@H]1CCSSCC[C@@H](C(=O)N[C@@H](Cc2cnc[nH]2)C(=O)N2CCC[C@H]2C(=O)N[C@@H](Cc2ccccc2)C(=O)O)NC(=O)[C@H](Cc2ccc(O)cc2)NC1=O [2-({1-[2-{[11-[5-Guanidino-2-(2-methylamino-acetylamino)-pentanoylamino]-8-(4-hydroxy-benzyl)-7,10-dioxo-1,2-dithia-6,9-diaza-cyclotridecane-5-carbonyl]-amino}-3-(3H-imidazol-4-yl)-propionyl]-pyrrolidine-2-carbonyl}-amino)-3-phenyl-propionic acid] (H-[Sar]R[hCys]Y[hCys]HPF-OH; disulfide 3-5)
2 | 25 nM | CNCC(=O)N[C@@H](CCCNC(=N)N)C(=O)N1C[C@@H]2C[C@H]1C(=O)N[C@@H](Cc1ccc(O)cc1)C(=O)N[C@H](C(=O)N[C@@H](Cc1cnc[nH]1)C(=O)N1CCC[C@H]1C(=O)N[C@@H](Cc1ccccc1)C(=O)O)CSS[C@H]1C[C@@H](C(=O)N[C@@H](Cc3ccc(O)cc3)C(=O)N[C@H](C(=O)N[C@@H](Cc3cnc[nH]3)C(=O)N3CCC[C@H]3C(=O)N[C@@H](Cc3ccccc3)C(=O)O)CSS2)N(C(=O)[C@H](CCCNC(=N)N)NC(=O)CNC)C1 [bis c[Sar1-Arg2-MPc3-Tyr4-Cys5-His6-Pro7-Phe8]antiparallel] (I: H-[Sar]R[Pro(4S-SH)]YCHPF-OH / II: H-[Sar]R[Pro(4S-SH)]YCHPF-OH; disulfide I:3-II:5, I:5-II:3)
3 | 23 nM | CNCC(=O)N[C@@H](CCCNC(=N)N)C(=O)N1C[C@@H]2C[C@H]1C(=O)N[C@@H](Cc1ccc(O)cc1)C(=O)N[C@H](C(=O)N[C@@H](Cc1cnc[nH]1)C(=O)N1CCC[C@H]1C(=O)N[C@@H](Cc1ccccc1)C(=O)O)CSSC[C@H](C(=O)N[C@H](Cc1cnc[nH]1)C(=O)N1CCC[C@@H]1C(=O)N[C@H](Cc1ccccc1)C(=O)O)NC(=O)[C@@H](Cc1ccc(O)cc1)NC(=O)[C@H]1C[C@H](CN1C(=O)[C@@H](CCCNC(=N)N)NC(=O)CNC)SS2 [bis c[Sar1-Arg2-MPc3-Tyr4-Cys5-His6-Pro7-Phe8]parallel]
4 | 65 nM | CNCC(=O)N[C@@H](CCCN=C(N)N)C(=O)N[C@H]1CSSC[C@@H](C(=O)N[C@@H](Cc2c[nH]cn2)C(=O)N2CCC[C@H]2C(=O)N[C@@H](Cc2ccccc2)C(=O)O)NC(=O)[C@H](Cc2ccc(O)cc2)NC(=O)[C@@H](NC(=O)[C@H](CCCN=C(N)N)NC(=O)CNC)CSSC[C@@H](C(=O)N[C@@H](Cc2c[nH]cn2)C(=O)N2CCC[C@H]2C(=O)N[C@@H](Cc2ccccc2)C(=O)O)NC(=O)[C@H](Cc2ccc(O)cc2)NC1=O [bis-c[Sar1-Arg2-Cys3-Tyr4-Cys5-His6-Pro7-Phe8](antiparallel)] (I: H-[Sar]RCYCHPF-OH / II: H-[Sar]RCYCHPF-OH; disulfide I:3-II:5, I:5-II:3)
5 | 86 nM | CNCC(=O)N[C@@H](CCCN=C(N)N)C(=O)N[C@H]1CC(=O)NCCCC[C@@H](C(=O)N[C@@H](Cc2c[nH]cn2)C(=O)N2CCC[C@H]2C(=O)N[C@@H](Cc2ccccc2)C(=O)O)NC(=O)[C@H](Cc2ccc(O)cc2)NC1=O [c[Sar1-Arg2-Asp3-Tyr4-Lys5-His6-Pro7-Phe8]] (H-[Sar]RDYKHPF-OH; lactam 3-5)
6 | 0.82 nM | CNCC(=O)N[C@@H](CCCNC(=N)N)C(=O)N[C@H]1CSS[C@@H]2C[C@@H](C(=O)N[C@@H](Cc3cnc[nH]3)C(=O)N3CCC[C@H]3C(=O)N[C@@H](Cc3ccccc3)C(=O)O)N(C2)C(=O)[C@H](Cc2ccc(O)cc2)NC1=O [c[Sar1-Arg2-Cys3-Tyr4-MPt5-His6-Pro7-Phe8]] (H-[Sar]RCY[Pro(4R-SH)]HPF-OH; disulfide 3-5)
7 | 9.1 nM | CNCC(=O)N[C@@H](CCCNC(=N)N)C(=O)N[C@H]1CCSS[C@H]2C[C@@H](C(=O)N[C@@H](Cc3cnc[nH]3)C(=O)N3CCC[C@H]3C(=O)N[C@@H](Cc3ccccc3)C(=O)O)N(C2)C(=O)[C@H](Cc2ccc(O)cc2)NC1=O [c[Sar1-Arg2-Hcy3-Tyr4-MPc5-His6-Pro7-Phe8]] (H-[Sar]R[hCys]Y[Pro(4S-SH)]HPF-OH; disulfide 3-5)
8 | 12 nM | CNCC(=O)N[C@@H](CCCNC(=N)N)C(=O)N1C[C@@H]2C[C@H]1C(=O)N[C@@H](Cc1ccc(O)cc1)C(=O)N[C@H](C(=O)N[C@@H](Cc1cnc[nH]1)C(=O)N1CCC[C@H]1C(=O)N[C@@H](Cc1ccccc1)C(=O)O)CSS2 [c[Sar1-Arg2-MPc3-Tyr4-Cys5-His6-Pro7-Phe8]] (H-[Sar]R[Pro(4S-SH)]YCHPF-OH; disulfide 3-5)
